From PubChem BioAssay (NCI)
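All cell lines were grown in 96-well plates and treated with compound for 48 hours. GI50 = concentration required for 50% inhibition of growth. The concentration for full growth arrest is given as TGI.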

Assays:
Assay in all cases: DTP human tumour cell line panel, 48 h
786-0 renal = test system: 786-0 renal
ACHN renal = test system: ACHN renal
BT-549 breast = test system: BT-549 breast
CCRF-CEM leukemia = test system: CCRF-CEM leukemia
HOP-62 NSCLC = test system: HOP-62 NSCLC
HOP-92 NSCLC = test system: HOP-92 NSCLC
HS 578T breast = test system: HS 578T breast
MDA-MB-231 breast = test system: MDA-MB-231 breast
NCI-H23 lung = test system: NCI-H23 lung
NCI/ADR-RES ovarian = test system: NCI/ADR-RES ovarian
RXF 393 renal = test system: RXF 393 renal
SF-268 CNS = test system: SF-268 CNS
SF-295 CNS = test system: SF-295 CNS
SF-539 CNS = test system: SF-539 CNS
SK-MEL-2 melanoma = test system: SK-MEL-2 melanoma
SNB-19 CNS = test system: SNB-19 CNS
SNB-75 CNS = test system: SNB-75 CNS
TK-10 renal = test system: TK-10 renal
U251 CNS = test system: U251 CNS

CC(=O)Nc1ccc(NC(=O)Nc2cccc(-c3nc(-c4ccc(NC(=O)c5cccs5)cc4Cl)no3)c2)cc1C(F)(F)F
GI50 (786-0 renal): 2120 nM | TGI (786-0 renal): 4760 nM | GI50 (ACHN renal): 2670 nM | TGI (ACHN renal): 8410 nM | GI50 (BT-549 breast): 1680 nM | TGI (BT-549 breast): 4600 nM | GI50 (CCRF-CEM leukemia): 1830 nM | TGI (CCRF-CEM leukemia): > 100000 nM | GI50 (HOP-62 NSCLC): 718 nM | TGI (HOP-62 NSCLC): 2250 nM | GI50 (HOP-92 NSCLC): 1090 nM | TGI (HOP-92 NSCLC): 3020 nM | GI50 (HS 578T breast): 1830 nM | TGI (HS 578T breast): 4550 nM | GI50 (MDA-MB-231 breast): 666 nM | TGI (MDA-MB-231 breast): 2230 nM | GI50 (NCI-H23 lung): 1330 nM | TGI (NCI-H23 lung): 3040 nM | GI50 (NCI/ADR-RES ovarian): 19700 nM | TGI (NCI/ADR-RES ovarian): > 100000 nM | GI50 (RXF 393 renal): 1140 nM | TGI (RXF 393 renal): 2450 nM | GI50 (SF-268 CNS): 1560 nM | TGI (SF-268 CNS): 4080 nM | GI50 (SF-295 CNS): 1460 nM | TGI (SF-295 CNS): 2990 nM | GI50 (SF-539 CNS): 1450 nM | TGI (SF-539 CNS): 2910 nM | GI50 (SK-MEL-2 melanoma): 2060 nM | TGI (SK-MEL-2 melanoma): 4150 nM | GI50 (SNB-19 CNS): 692 nM | TGI (SNB-19 CNS): 2670 nM | GI50 (SNB-75 CNS): 1310 nM | TGI (SNB-75 CNS): 2990 nM | GI50 (TK-10 renal): 2190 nM | TGI (TK-10 renal): 5070 nM | GI50 (U251 CNS): 354 nM | TGI (U251 CNS): 1080 nM
